Data on twelve compounds can be found in ChEMBL document CHEMBL1201862, “PubChem BioAssay data set” (2004).

Molecules are shown by their SMILES. Calls of active or inactive are those of the source. Rule as the data show it, for most assays here: actives have a measured EC50 and inactives only a lower limit.

The nature of assay [1]: viability of HCT116 lacking mutant beta-catenin – cell-based, human colon tumor, dose response (AID 1045).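 Also: HCT116 colon tumor cells with beta catenin knocked out; cells exposed to compound for 60 hours.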 It counts as functional.
Assay [2] can be described thus: viability of PTEN-deleted HCT116 cells – cell-based, HCT116 PTEN knockout, dose response (AID 1047).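 Also: HCT116 colon tumor cells with PTEN knocked out; cells exposed to compound for 60 hours before readout; potency for loss of cell viability measured by luminescence.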 It counts as functional.
The target of another assay is T1, Protein RecA (Mycobacterium tuberculosis, UniProt P9WHJ3).
T1 sequence (P9WHJ3 whole entry): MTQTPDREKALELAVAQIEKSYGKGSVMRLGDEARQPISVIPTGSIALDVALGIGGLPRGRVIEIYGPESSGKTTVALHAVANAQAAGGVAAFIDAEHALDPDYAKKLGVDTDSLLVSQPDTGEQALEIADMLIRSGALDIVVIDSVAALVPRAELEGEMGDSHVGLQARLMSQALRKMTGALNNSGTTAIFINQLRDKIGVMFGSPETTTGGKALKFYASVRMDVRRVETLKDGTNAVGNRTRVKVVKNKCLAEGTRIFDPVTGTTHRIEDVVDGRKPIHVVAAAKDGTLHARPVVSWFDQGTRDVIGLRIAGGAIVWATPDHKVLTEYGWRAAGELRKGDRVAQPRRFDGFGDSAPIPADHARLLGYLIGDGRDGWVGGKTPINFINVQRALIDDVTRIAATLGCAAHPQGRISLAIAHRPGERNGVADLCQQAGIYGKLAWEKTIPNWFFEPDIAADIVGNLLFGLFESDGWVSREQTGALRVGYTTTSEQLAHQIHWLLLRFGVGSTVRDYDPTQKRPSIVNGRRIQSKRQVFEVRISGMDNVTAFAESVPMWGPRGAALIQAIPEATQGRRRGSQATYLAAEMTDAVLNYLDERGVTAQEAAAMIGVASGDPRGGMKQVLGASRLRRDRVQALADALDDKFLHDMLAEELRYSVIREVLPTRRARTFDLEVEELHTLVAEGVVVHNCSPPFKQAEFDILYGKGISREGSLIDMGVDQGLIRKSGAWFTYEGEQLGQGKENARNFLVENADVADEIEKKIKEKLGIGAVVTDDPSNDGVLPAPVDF
As to the kind of experiment: Fluorescence Cell-Free Homogeneous Dose Retest to Identify Inhibitors of RecA-Intein Splicing Activity. [Related pubchem assays (depositor defined):AID2097, AID2223, AID489010, AID492950]. It counts as functional.

For assay [3], the target named is T2, Replicative DNA helicase DnaB (Mycobacterium tuberculosis, UniProt P9WMR3).
T2 sequence (P9WMR3 whole entry): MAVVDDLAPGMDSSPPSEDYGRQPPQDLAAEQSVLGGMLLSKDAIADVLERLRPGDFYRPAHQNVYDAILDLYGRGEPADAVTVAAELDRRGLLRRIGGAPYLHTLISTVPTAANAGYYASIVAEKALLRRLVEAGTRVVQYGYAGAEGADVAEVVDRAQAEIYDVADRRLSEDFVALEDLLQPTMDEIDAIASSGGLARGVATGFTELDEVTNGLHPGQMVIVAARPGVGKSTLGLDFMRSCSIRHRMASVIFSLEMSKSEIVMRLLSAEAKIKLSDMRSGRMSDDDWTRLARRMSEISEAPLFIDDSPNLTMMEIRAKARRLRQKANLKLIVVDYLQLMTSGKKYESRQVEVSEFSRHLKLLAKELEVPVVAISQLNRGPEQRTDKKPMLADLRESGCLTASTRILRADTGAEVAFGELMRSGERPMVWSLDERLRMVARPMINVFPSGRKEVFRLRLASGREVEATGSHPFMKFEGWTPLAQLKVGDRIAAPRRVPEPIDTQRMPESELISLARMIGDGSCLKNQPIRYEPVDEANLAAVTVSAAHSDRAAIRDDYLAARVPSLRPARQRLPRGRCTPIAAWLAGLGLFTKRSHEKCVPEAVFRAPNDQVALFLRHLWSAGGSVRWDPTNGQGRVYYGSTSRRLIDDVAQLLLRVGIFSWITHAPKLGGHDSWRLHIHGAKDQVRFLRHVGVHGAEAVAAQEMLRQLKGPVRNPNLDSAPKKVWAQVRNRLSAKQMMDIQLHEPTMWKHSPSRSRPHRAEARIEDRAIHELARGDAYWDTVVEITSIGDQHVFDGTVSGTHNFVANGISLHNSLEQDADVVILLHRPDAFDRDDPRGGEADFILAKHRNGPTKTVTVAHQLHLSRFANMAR
As to the kind of experiment: DnaB intein splicing inhibitors, dose response, biochemical, cell-free fluorescence (AID 449749). It is filed as functional.

The nature of assay [4]: Luminescence Cell-Based Dose Response HTS to Identify Activators of Luciferase Translation or Activity in H4 […] Cells. [Related pubchem assays: 1829 (Project Summary), 1814 (Primary HTS)]. It is filed as functional.
Assay [5] is described as follows: Luminescence Cell-Based Dose Confirmation HTS to Identify Activators of 5'UTR Stem-Loop Driven Alpha-Synuclein mRNA Translation in H4 Neuroglioblastoma Cells. [Related pubchem assays: 1829 (Project Summary), 1814 (Primary HTS)]. It counts as functional.
The test system of the next assay is H4. As to the kind of experiment: Luminescence Cell-Based Dose Response HTS to Identify Activators of 5'UTR Stem-Loop Driven Prion Protein mRNA Translation in H4 Neuroglioblastoma Cells. [Related pubchem assays: 1829 (Project Summary), 1814 (Primary HTS)]. It is filed as functional. To be noted: Homo sapiens.
Assay [6] addresses Peroxisome proliferator-activated receptor gamma/Nuclear receptor coactivator 3 (Homo sapiens, UniProt P37231). It counts as functional.
Assay [7] has as its target Peroxisome proliferator-activated receptor gamma/Nuclear receptor coactivator 1 (Homo sapiens, UniProt P37231). It counts as functional.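 Also: agonist potency as compounds enhance coactivator SRC-1 recruitment to PPARgamma.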
Assay [8] addresses Peroxisome proliferator-activated receptor gamma/Nuclear receptor coactivator 2 (Homo sapiens, UniProt P37231). It is filed as functional.
Assay [9] can be described thus: viability of uninfected HEp-2 cells – cell-based, HTS, cytotoxicity control for RSV inhibitor project, dose response (AID 2410). It is filed as functional. To be noted: human respiratory syncytial virus.
In assay [10] the target is T3, RNA-binding protein pos-1 (Caenorhabditis elegans, UniProt G5EF15).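 Also: purified POS-1 fused to maltose binding protein made in E. coli; potency of compounds blocking POS-1 binding to fluorescent RNA.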
T3 sequence (G5EF15 whole entry): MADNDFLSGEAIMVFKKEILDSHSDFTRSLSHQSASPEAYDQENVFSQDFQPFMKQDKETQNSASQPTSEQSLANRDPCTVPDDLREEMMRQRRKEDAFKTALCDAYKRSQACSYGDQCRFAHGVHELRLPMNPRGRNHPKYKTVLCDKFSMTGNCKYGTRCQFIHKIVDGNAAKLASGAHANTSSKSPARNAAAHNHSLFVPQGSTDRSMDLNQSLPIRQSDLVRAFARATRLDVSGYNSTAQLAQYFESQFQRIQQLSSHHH
As to the kind of experiment: disruptors of C. elegans POS-1 RNA interaction – biochemical, fluorescence polarization, dose response (AID 1964). (In fluorescence polarisation assays a small probe gives low polarisation when free and higher when bound to something large.)

Assay [11] can be described thus: NIH3T3 cell viability loss – ATP luminescence, mouse fibroblasts, counter-screen, dose response (AID 2010).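 Also: cells exposed to compound for about 90 hours before reading.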 It counts as functional, cell-based.
The target in assay [12] is T4, Zinc finger protein mex-5 (Caenorhabditis elegans, UniProt Q9XUB2).
T4 sequence (Q9XUB2 whole entry): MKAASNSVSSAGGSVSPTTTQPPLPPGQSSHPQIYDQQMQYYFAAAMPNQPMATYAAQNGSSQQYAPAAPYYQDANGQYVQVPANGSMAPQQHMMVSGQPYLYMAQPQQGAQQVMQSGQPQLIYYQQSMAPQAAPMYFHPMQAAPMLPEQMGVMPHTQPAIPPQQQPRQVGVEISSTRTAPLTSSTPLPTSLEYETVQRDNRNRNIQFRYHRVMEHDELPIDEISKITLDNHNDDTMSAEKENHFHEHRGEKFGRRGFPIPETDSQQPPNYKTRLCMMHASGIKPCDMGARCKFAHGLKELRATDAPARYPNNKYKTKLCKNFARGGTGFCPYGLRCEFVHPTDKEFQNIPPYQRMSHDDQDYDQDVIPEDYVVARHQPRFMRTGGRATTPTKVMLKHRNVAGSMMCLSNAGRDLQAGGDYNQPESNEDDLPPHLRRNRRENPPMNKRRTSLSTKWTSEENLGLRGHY
As to the kind of experiment: potency of MEX-5 RNA-binding blockers – biochemical, C. elegans, fluorescence polarization, dose response (AID 1960).

Assay [13] can be described thus: Trypanosoma cruzi growth suppression in host cells – NIH3T3 host cells, beta-gal luminescence, confirmation (AID 2044).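 Also: intracellular parasites grown in NIH/3T3 mouse fibroblasts as host cells; luminescent beta-galactosidase reporter signal from transgenic T. cruzi replicating inside host cells; inhibitors lower the luminescence signal.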 It is filed as functional, cell-based.

Chain of Peroxisome proliferator-activated receptor gamma/Nuclear receptor coactivator 3 (P37231 whole entry): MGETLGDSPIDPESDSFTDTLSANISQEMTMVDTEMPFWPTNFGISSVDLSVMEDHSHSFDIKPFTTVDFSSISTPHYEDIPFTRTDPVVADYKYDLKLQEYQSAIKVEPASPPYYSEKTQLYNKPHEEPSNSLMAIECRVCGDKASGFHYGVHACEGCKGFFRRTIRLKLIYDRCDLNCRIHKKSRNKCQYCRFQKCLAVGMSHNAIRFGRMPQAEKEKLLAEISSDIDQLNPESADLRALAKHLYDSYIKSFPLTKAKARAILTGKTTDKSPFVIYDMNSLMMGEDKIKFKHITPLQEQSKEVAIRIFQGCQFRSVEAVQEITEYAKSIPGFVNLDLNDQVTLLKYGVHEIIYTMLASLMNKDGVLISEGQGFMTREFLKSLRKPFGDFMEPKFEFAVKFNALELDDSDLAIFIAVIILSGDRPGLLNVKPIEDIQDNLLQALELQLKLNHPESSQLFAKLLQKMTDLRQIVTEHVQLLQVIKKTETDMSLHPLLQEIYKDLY
Chain of Peroxisome proliferator-activated receptor gamma/Nuclear receptor coactivator 3 (Q9Y6Q9 whole entry, further chain): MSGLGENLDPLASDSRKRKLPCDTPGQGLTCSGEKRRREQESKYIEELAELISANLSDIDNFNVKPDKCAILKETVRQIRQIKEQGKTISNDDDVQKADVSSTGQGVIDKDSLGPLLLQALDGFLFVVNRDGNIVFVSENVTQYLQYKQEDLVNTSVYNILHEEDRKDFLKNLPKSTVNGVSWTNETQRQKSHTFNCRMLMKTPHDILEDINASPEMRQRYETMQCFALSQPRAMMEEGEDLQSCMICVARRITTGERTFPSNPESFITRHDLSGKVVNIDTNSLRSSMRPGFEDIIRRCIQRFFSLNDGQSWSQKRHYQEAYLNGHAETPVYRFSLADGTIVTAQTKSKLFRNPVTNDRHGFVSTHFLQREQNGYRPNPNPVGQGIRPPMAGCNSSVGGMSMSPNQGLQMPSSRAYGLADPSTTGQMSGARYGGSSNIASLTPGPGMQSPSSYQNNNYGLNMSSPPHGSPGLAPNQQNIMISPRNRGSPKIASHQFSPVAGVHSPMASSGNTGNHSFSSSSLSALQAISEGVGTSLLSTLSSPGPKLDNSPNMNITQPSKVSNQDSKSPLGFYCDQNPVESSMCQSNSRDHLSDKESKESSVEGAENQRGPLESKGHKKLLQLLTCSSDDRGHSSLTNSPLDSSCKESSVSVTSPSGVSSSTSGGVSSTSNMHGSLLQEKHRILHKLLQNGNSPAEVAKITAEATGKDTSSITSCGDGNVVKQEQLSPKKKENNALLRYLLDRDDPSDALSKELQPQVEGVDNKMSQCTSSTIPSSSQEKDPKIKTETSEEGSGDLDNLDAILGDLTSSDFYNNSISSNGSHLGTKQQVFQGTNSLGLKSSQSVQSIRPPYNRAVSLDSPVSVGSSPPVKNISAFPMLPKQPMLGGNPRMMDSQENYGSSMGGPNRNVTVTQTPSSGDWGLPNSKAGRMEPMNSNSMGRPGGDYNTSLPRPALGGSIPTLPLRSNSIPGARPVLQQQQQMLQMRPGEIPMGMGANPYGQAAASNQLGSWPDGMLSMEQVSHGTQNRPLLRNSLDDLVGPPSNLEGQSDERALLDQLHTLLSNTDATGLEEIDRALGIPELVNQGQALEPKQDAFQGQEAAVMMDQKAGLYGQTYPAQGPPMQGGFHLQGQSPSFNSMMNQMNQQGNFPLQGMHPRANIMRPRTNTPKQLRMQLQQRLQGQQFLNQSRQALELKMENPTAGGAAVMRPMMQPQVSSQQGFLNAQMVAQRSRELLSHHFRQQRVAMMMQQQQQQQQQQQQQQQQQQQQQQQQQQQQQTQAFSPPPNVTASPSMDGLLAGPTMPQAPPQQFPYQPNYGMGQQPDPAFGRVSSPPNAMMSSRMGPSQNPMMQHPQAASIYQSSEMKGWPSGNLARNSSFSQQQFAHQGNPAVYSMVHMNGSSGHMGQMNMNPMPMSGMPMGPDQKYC
Chain of Peroxisome proliferator-activated receptor gamma/Nuclear receptor coactivator 1 (P37231 whole entry): as the sequence (P37231 whole entry) above
Chain of Peroxisome proliferator-activated receptor gamma/Nuclear receptor coactivator 1 (Q15788 whole entry, further chain): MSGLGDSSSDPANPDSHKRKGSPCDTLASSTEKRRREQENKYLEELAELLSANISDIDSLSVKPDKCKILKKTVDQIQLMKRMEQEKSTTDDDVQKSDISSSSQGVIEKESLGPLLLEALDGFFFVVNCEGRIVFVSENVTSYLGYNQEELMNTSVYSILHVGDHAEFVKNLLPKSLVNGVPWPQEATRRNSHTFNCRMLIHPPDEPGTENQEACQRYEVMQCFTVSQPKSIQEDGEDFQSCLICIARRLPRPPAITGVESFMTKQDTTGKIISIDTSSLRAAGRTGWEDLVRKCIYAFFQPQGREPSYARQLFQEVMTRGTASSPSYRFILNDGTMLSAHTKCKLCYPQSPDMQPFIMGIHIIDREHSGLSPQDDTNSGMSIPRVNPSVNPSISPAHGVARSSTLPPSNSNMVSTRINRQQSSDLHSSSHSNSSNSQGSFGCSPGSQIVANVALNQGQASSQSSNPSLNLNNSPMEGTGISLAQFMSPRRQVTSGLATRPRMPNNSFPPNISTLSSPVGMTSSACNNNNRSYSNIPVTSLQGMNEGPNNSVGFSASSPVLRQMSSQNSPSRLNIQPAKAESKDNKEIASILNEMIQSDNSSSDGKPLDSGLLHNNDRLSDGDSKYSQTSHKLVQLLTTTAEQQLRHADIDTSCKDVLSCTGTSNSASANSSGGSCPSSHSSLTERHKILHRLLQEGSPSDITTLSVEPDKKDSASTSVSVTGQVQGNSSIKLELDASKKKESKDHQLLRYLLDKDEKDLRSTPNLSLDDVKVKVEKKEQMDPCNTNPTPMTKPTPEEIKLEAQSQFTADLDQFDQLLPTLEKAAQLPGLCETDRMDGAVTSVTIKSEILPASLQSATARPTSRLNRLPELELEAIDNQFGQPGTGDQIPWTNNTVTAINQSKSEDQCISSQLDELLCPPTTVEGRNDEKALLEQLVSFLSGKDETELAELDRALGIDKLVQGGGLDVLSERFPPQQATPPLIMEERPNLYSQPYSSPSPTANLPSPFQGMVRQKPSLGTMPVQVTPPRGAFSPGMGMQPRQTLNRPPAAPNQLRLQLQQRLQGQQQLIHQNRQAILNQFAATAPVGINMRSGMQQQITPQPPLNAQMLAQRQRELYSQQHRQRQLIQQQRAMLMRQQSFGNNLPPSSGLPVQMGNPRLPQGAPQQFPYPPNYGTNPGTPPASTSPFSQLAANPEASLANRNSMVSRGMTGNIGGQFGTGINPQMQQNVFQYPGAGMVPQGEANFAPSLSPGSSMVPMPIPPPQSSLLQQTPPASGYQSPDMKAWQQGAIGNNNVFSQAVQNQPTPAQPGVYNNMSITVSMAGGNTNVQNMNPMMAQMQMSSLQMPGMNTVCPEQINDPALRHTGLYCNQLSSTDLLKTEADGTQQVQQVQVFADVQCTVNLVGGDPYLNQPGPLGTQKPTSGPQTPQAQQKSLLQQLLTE

Broadly, the EC50 is the concentration at which the effect is half-maximal. The AC50 is the concentration at which the activity in the assay is half-maximal. `COc1ccc(-c2nnc(Sc3nc4ccccc4o3)c3ccccc23)cc1`: the results for the half-maximal effective concentration (EC50) (in [1]; in assay [2]; on Protein RecA) were 16.2 µM (active), 18.3 µM (active) and 0.703 µM (active), respectively. Moreover, the AC50 in assay [3] is 3.8 µM (active).

Turning to `CCCc1ccc2oc(C(=O)NCCCN3CCOCC3)c(C)c2c1`, the EC50 in [4] is 30.8 µM (active); in [5] it was 18.7 µM (active); in the assay with H4, 53.7 µM (active).

In the case of `O=C(c1cccc(C(F)(F)F)c1)N1CCN(c2cc(O)nnc2-c2ccccc2)CC1`, the EC50 in assay [6], in assay [7] and in [8] was > 79.4 µM (not active) throughout.

`CC(C)(C)c1ccc(-c2nnc3sc(-c4ccncc4)nn23)cc1`: the EC50 in assay [6], in [7] and in assay [8] was > 79.4 µM (not active) each time.

In the case of `CCCOc1cccc(-c2nc3ccccc3c(=O)o2)c1`, the results for the EC50 (in [4]; in [5]; on Protein RecA) were 16.3 µM (active), 26.3 µM (active) and 6.81 µM (active), respectively. For the same compound, in [3], the AC50 is 9.46 µM (active).

In the case of `N#Cc1c(NC(=O)C2CC2)sc2c1CCCCC2`, the values for the EC50 (in assay [4]; in assay [5]; in the assay on H4) were 81.4 µM (active), 34.7 µM (active) and > 120 µM (not active), respectively.

On to `CC(C)(C)NC(=O)CSc1nc(O)cc(=O)n1-c1ccccc1F`, for which the EC50 in assay [6], in assay [7] and in assay [8] was > 79.4 µM (not active) throughout.

On to `c1ccc(SCc2nc(-c3ccncc3)no2)cc1`, for which the figures for the EC50 (in [4]; in assay [5]; in the assay with H4) were 25.8 µM (active), 14.8 µM (active) and 10.1 µM (active), respectively.

Consider `Cc1ccc(NC(=O)c2cn(-c3cccc(C)n3)cn2)cc1`, for which the 50% effective concentration (EC50) in [4] is 0.269 µM (active); in assay [5] it was 0.157 µM (active); in the assay on H4 it was > 120 µM (not active).

What is called CC50 is the concentration at which the toxic effect on the cells reaches its halfway point. For the compound `C#CCn1/c(=N/C(=O)c2ccc(Cl)s2)sc2cccc(OC)c21`, the values for the EC50 in assay [6], in [7] and in [8] were 21.5 µM (not active), 18.4 µM (not active) and 12.8 µM (not active), respectively. For the same compound, the CC50 in assay [9] is 19.1 µM (active).

As for `CCN1CCc2c(sc(NC(=O)c3ccc4ccccc4c3)c2C(N)=O)C1`, the EC50 is 45.5 µM (active) in assay [10]; 7.69 µM (active) in assay [4]; 16.8 µM (active) in [11]; 36.5 µM (active) in assay [5]; > 300 µM (inconclusive) in assay [12]; 2.47 µM (active) in [13]. Moreover, in the assay with H4, the EC50 is reported as > 60 µM (not active).

With `COc1ccc(-c2noc(Cc3ccccc3OC)n2)cc1`, the EC50 in assay [6], in assay [7] and in [8] was > 79.4 µM (not active) in each case.
